Experimental findings from PubChem BioAssay AID1745844 (Carcinogenic Potency Database (CPDB), 2022) are described below.

“And” between values parts separate entries of the source, which are not always exact repeats. Identical values can stand only once. The source made the active and inactive calls. How the calls were made is not given here.

This data set has as its system rodent lifetime carcinogenesis bioassay, tumor incidence TD50. The experiment in a line: chronic cancer bioassays in animals – CPDB, compiled studies (AID 1745844).

For `CCC(C)=NO`, the TD50 (mouse, strain Charles River CD1, females, inhaled, site: liver, lesion: hepatocellular adenoma, dosed 78 weeks, study length 78 weeks) is 2440 mg/kg/day; the TD50 (mouse, strain Charles River CD1, females, inhaled, site: lung, lesion: adenoma, dosed 78 weeks, study length 78 weeks) amounted to 5880 mg/kg/day; the TD50 (mouse, strain Charles River CD1, males, inhaled, site: liver, lesion: hepatocellular adenoma, dosed 78 weeks, study length 78 weeks) came to 1460 mg/kg/day; the TD50 (mouse, strain Charles River CD1, males, inhaled, site: liver, lesion: hepatocellular carcinoma, dosed 78 weeks, study length 78 weeks) was 810 mg/kg/day; the TD50 (mouse, strain Charles River CD1, males, inhaled, site: liver, lesion: several types, types named in the paper, dosed 78 weeks, study length 78 weeks) was 534 mg/kg/day; the TD50 (mouse, strain Charles River CD1, males, inhaled, site: lung, lesion: adenoma, dosed 78 weeks, study length 78 weeks) stood at 1100 mg/kg/day. Besides, the TD50 (rat, strain Fischer 344, females, inhaled, site: liver, lesion: hepatocellular adenoma, dosed 113 weeks, study length 113 weeks) came to 804 mg/kg/day; the TD50 (rat, strain Fischer 344, males, inhaled, site: liver, lesion: hepatocellular adenoma, dosed 113 weeks, study length 113 weeks) is 118 mg/kg/day; the TD50 (rat, strain Fischer 344, males, inhaled, site: liver, lesion: hepatocellular carcinoma, dosed 113 weeks, study length 113 weeks) was 242 mg/kg/day; the TD50 (rat, strain Fischer 344, males, inhaled, site: liver, lesion: several types, types named in the paper, dosed 113 weeks, study length 113 weeks) is 74.5 mg/kg/day; the TD50 (rat, strain Fischer 344, males, inhaled, site: mammary gland, lesion: fibroadenoma, dosed 113 weeks, study length 113 weeks) amounted to 346 mg/kg/day; the TD50 (rat, strain Fischer 344, males, inhaled, site: skin, lesion: fibroma, dosed 113 weeks, study length 113 weeks) worked out at 84.8 mg/kg/day.

As for `CC(C)(C)c1cc([N+](=O)[O-])cc([N+](=O)[O-])c1OS(C)(=O)=O`, the TD50 (rat, strain Sprague-Dawley, females, in feed, site: any site (literature study), lesion: several types, types named in the paper, dosed 52 weeks, study length 52 weeks) turned out to be 2.66 mg/kg/day.

In the case of `O=c1ccc2ccccc2o1`, the TD50 runs as follows: (hamster, strain Syrian Golden, females, in feed, site: any site (literature study), lesion: several types, types named in the paper, dosed 95 weeks, study length 104 weeks) 5520 mg/kg/day (inactive); (hamster, strain Syrian Golden, males, in feed, site: any site (literature study), lesion: several types, types named in the paper, dosed 104 weeks, study length 104 weeks) 603 mg/kg/day (inactive); (mouse, strain B6C3F1, females, by gavage, site: any site (literature study), lesion: several types, types named in the paper, dosed 103 weeks, study length 104 weeks) 198 mg/kg/day; (mouse, strain B6C3F1, females, by gavage, site: forestomach, lesion: squamous-cell carcinoma + squamous-cell papilloma, dosed 103 weeks, study length 104 weeks) 42000 mg/kg/day; (mouse, strain B6C3F1, females, by gavage, site: forestomach, lesion: squamous-cell papilloma, dosed 103 weeks, study length 104 weeks) 12200 mg/kg/day; (mouse, strain B6C3F1, females, by gavage, site: liver + lung, lesion: hepatocellular adenoma + hepatocellular carcinoma + alveolar/bronchiolar adenoma + alveolar/bronchiolar carcinoma, dosed 103 weeks, study length 104 weeks) 85.5 mg/kg/day. Also, the TD50 (mouse, strain B6C3F1, females, by gavage, site: liver, lesion: hepatocellular adenoma + hepatoblastoma + hepatocellular carcinoma, dosed 103 weeks, study length 104 weeks) amounted to 65.7 mg/kg/day; the TD50 (mouse, strain B6C3F1, females, by gavage, site: liver, lesion: hepatocellular adenoma + hepatocellular carcinoma, dosed 103 weeks, study length 104 weeks) is 65.7 mg/kg/day; the TD50 (mouse, strain B6C3F1, females, by gavage, site: liver, lesion: hepatocellular adenoma, dosed 103 weeks, study length 104 weeks) was 72.8 mg/kg/day; the TD50 (mouse, strain B6C3F1, females, by gavage, site: lung, lesion: alveolar/bronchiolar adenoma + alveolar/bronchiolar carcinoma, dosed 103 weeks, study length 104 weeks) stood at 135 mg/kg/day; the TD50 (mouse, strain B6C3F1, females, by gavage, site: lung, lesion: alveolar/bronchiolar adenoma, dosed 103 weeks, study length 104 weeks) is 179 mg/kg/day; the TD50 (mouse, strain B6C3F1, females, by gavage, site: lung, lesion: alveolar/bronchiolar carcinoma, dosed 103 weeks, study length 104 weeks) was 825 mg/kg/day. In addition, the TD50 by setting is: (mouse, strain B6C3F1, males, by gavage, site: all sites, lesion: histiocytic sarcoma + malignant lymphoma, histiocytic type + malignant lymphoma, mixed type + malignant lymphoma, lymphocytic, dosed 103 weeks, study length 104 weeks) 600 mg/kg/day; (mouse, strain B6C3F1, males, by gavage, site: any site (literature study), lesion: several types, types named in the paper, dosed 103 weeks, study length 104 weeks) 461 mg/kg/day; (mouse, strain B6C3F1, males, by gavage, site: forestomach, lesion: squamous-cell carcinoma + squamous-cell papilloma, dosed 103 weeks, study length 104 weeks) 152 mg/kg/day; (mouse, strain B6C3F1, males, by gavage, site: forestomach, lesion: squamous-cell papilloma, dosed 103 weeks, study length 104 weeks) 179 mg/kg/day; (mouse, strain B6C3F1, males, by gavage, site: liver, lesion: hepatoblastoma, dosed 103 weeks, study length 104 weeks) 632 mg/kg/day; (mouse, strain B6C3F1, males, by gavage, site: lung, lesion: alveolar/bronchiolar adenoma + alveolar/bronchiolar carcinoma, dosed 103 weeks, study length 104 weeks) 241 mg/kg/day. Moreover, the TD50 by setting is: (mouse, strain B6C3F1, males, by gavage, site: lung, lesion: alveolar/bronchiolar adenoma, dosed 103 weeks, study length 104 weeks) 265 mg/kg/day; (mouse, strain B6C3F1, males, by gavage, site: pancreatic islets, lesion: islet-cell adenoma, dosed 103 weeks, study length 104 weeks) 1310 mg/kg/day; (mouse, strain Charles River CD1, females, in feed, site: liver, lesion: several types, types named in the paper, dosed 109 weeks, study length 109 weeks) 176 mg/kg/day (inactive); (mouse, strain Charles River CD1, females, in feed, site: lung, lesion: adenocarcinoma, dosed 109 weeks, study length 109 weeks) 3140 mg/kg/day (inactive); (mouse, strain Charles River CD1, females, in feed, site: lung, lesion: adenoma, dosed 109 weeks, study length 109 weeks) 4500 mg/kg/day (inactive); (mouse, strain Charles River CD1, males, in feed, site: lung, lesion: adenocarcinoma, dosed 101 weeks, study length 101 weeks) 1020 mg/kg/day (inactive). Moreover, the TD50 by setting is: (rat, strain Fischer 344, females, by gavage, site: any site (literature study), lesion: several types, types named in the paper, dosed 103 weeks, study length 104 weeks) 456 mg/kg/day; (rat, strain Fischer 344, females, by gavage, site: kidney, lesion: tubule adenoma, dosed 103 weeks, study length 104 weeks) 1410 mg/kg/day and 930 mg/kg/day; (rat, strain Fischer 344, males, by gavage, site: any site (literature study), lesion: several types, types named in the paper, dosed 39 weeks, study length 104 weeks) 210 mg/kg/day; (rat, strain Fischer 344, males, by gavage, site: any site (literature study), lesion: several types, types named in the paper, dosed 65 weeks, study length 104 weeks) 12.2 mg/kg/day; (rat, strain Fischer 344, males, by gavage, site: any site (literature study), lesion: several types, types named in the paper, dosed 101 weeks, study length 104 weeks) 12 mg/kg/day; (rat, strain Fischer 344, males, by gavage, site: forestomach, lesion: squamous-cell papilloma, dosed 101 weeks, study length 104 weeks) 142 mg/kg/day. Further, the TD50 runs as follows: (rat, strain Fischer 344, males, by gavage, site: kidney, lesion: adenoma + tubule adenoma + tubule carcinoma, dosed 101 weeks, study length 104 weeks) 13.9 mg/kg/day; (rat, strain Fischer 344, males, by gavage, site: kidney, lesion: adenoma + tubule adenoma, dosed 101 weeks, study length 104 weeks) 226 mg/kg/day and 13.9 mg/kg/day; (rat, strain Fischer 344, males, by gavage, site: kidney, lesion: tubule adenoma, dosed 65 weeks, study length 104 weeks) 67.6 mg/kg/day; (rat, strain Fischer 344, males, by gavage, site: kidney, lesion: tubule carcinoma, dosed 101 weeks, study length 104 weeks) 151 mg/kg/day; (rat, strain Fischer 344, males, by gavage, site: liver, lesion: hepatocellular adenoma + hepatoblastoma + hepatocellular carcinoma, dosed 65 weeks, study length 104 weeks) 171 mg/kg/day; (rat, strain Fischer 344, males, by gavage, site: pituitary gland, lesion: pars distalis adenoma, dosed 101 weeks, study length 104 weeks) 19.7 mg/kg/day. The TD50 was 19.8 mg/kg/day (rat, strain Fischer 344, males, by gavage, site: testis, lesion: interstitial-cell adenoma, dosed 39 weeks, study length 104 weeks); 8.22 mg/kg/day (rat, strain Fischer 344, males, by gavage, site: testis, lesion: interstitial-cell adenoma, dosed 65 weeks, study length 104 weeks); 3.62 mg/kg/day (rat, strain Fischer 344, males, by gavage, site: testis, lesion: interstitial-cell adenoma, dosed 101 weeks, study length 104 weeks); 767 mg/kg/day (rat, strain Sprague-Dawley, females, in feed, site: liver, lesion: cholangiocarcinoma, dosed 110 weeks, study length 110 weeks); 1440 mg/kg/day (rat, strain Sprague-Dawley, females, in feed, site: liver, lesion: several types, types named in the paper, dosed 110 weeks, study length 110 weeks); 302 mg/kg/day (rat, strain Sprague-Dawley, males, in feed, site: liver, lesion: cholangiocarcinoma, dosed 104 weeks, study length 104 weeks). Moreover, the TD50 (rat, strain Sprague-Dawley, males, in feed, site: liver, lesion: several types, types named in the paper, dosed 104 weeks, study length 104 weeks) is 365 mg/kg/day. Further, the carcinogen call reads like this: (hamster, strain Syrian Golden, females, in feed, site: liver, lesion: one or several types, types not named, dosed 95 weeks, study length 104 weeks) “negative (inactive)”; (hamster, strain Syrian Golden, males, in feed, site: liver, lesion: one or several types, types not named, dosed 104 weeks, study length 104 weeks) “negative (inactive)”; (mouse, strain Charles River CD1, males, in feed, site: liver, lesion: several types, types named in the paper, dosed 101 weeks, study length 101 weeks) “negative (inactive)”; (mouse, strain Charles River CD1, males, in feed, site: lung, lesion: adenoma, dosed 101 weeks, study length 101 weeks) “negative (inactive)”.

In the case of `CCCCN(CCCC)N=O`, the TD50 (mouse, strain ICR/Jcl, males, in feed, site: esophagus, lesion: papilloma, dosed 52 weeks, study length 65 weeks) was 11.9 mg/kg/day; the TD50 (mouse, strain ICR/Jcl, males, in feed, site: forestomach, lesion: several types, types named in the paper, dosed 52 weeks, study length 65 weeks) worked out at 0.686 mg/kg/day; the TD50 (mouse, strain ICR/Jcl, males, in feed, site: forestomach, lesion: squamous-cell carcinoma, dosed 52 weeks, study length 65 weeks) is 1.09 mg/kg/day; the TD50 (mouse, strain ICR/Jcl, males, in feed, site: forestomach, lesion: squamous-cell papilloma, dosed 52 weeks, study length 65 weeks) was determined as 7.69 mg/kg/day; the TD50 (mouse, strain ICR/Jcl, males, in feed, site: liver, lesion: adenoma, dosed 52 weeks, study length 65 weeks) was determined as 4.34 mg/kg/day; the TD50 (mouse, strain ICR/Jcl, males, in feed, site: liver, lesion: several types, types named in the paper, dosed 52 weeks, study length 65 weeks) is 2.65 mg/kg/day. Besides, the TD50 is, setting by setting: (mouse, strain ICR/Jcl, males, in feed, site: lung, lesion: adenoma, dosed 52 weeks, study length 65 weeks) 8 mg/kg/day; (rat, strain Fischer 344, males, by gavage, site: forestomach, lesion: carcinoma, dosed 30 weeks, study length 108 weeks) 0.914 mg/kg/day; (rat, strain Fischer 344, males, by gavage, site: liver, lesion: hepatocellular carcinoma, dosed 30 weeks, study length 108 weeks) 0.691 mg/kg/day; (rat, strain Fischer 344, males, by gavage, site: lung, lesion: carcinoma, dosed 30 weeks, study length 108 weeks) 1.16 mg/kg/day; (rat, strain Fischer 344, males, by gavage, site: urinary bladder, lesion: transitional-cell carcinoma, dosed 30 weeks, study length 108 weeks) 1.47 mg/kg/day.

Regarding `COc1cc(S(C)=O)ccc1-c1nc2ccncc2[nH]1` (stereo unspecified), the TD50 by setting is: (rat, strain Fischer 344, females, in feed, site: adrenal medulla, lesion: pheochromocytoma, benign, dosed 104 weeks, study length 104 weeks) 450 mg/kg/day; (rat, strain Fischer 344, females, in feed, site: adrenal medulla, lesion: several types, types named in the paper, dosed 104 weeks, study length 104 weeks) 385 mg/kg/day; (rat, strain Fischer 344, males, in feed, site: adrenal medulla, lesion: pheochromocytoma, benign, dosed 104 weeks, study length 104 weeks) 45.4 mg/kg/day; (rat, strain Fischer 344, males, in feed, site: adrenal medulla, lesion: pheochromocytoma, malignant, dosed 104 weeks, study length 104 weeks) 481 mg/kg/day; (rat, strain Fischer 344, males, in feed, site: adrenal medulla, lesion: several types, types named in the paper, dosed 104 weeks, study length 104 weeks) 38.8 mg/kg/day.
